Like-named read-outs stand apart in the source and are kept apart here.
Assay: pharmacokinetics in human clinical trials, plasma KRN7000 by LC-MS/MS
Assay type: in vivo
Conditions: patients; for Cmax / AUC(0-t): plasma, iv
Protocol: In a phase I clinical trial, RGI-2001-001 was administered intravenously at a dose of 100 μg/kg as KRN7000 within 30 minutes after transplantation to six patients who had received hematopoietic stem cell transplantation. 2 mL of peripheral blood was collected before and 0.5, 1, 2, 4, 6, 8, 24, 48, 72, and 96 hours after transplantation, respectively, and plasma components were collected. KRN7000 in each plasma was separated and identified by liquid chromatography-mass spectrometry (LC-MS/MS).
Similarly, RGI-2001-003 was administered intravenously at a dose of 100 μg/kg as KRN7000 within 30 minutes after transplantation to seven patients who had received hematopoietic stem cell transplantation, and 2 mL of peripheral blood was collected before and 0.5, 2, 4, 6, 8, 24, and 48 hours after transplantation. Plasma components were collected, and plasma KRN7000 was separated and identified by LC-MS/M. These patients were treated with RGI-2001-003 at a dose of 100 μg/kg as KRN7000 intravenously once a week for 5 to 6 consecutive doses. For the administration on day 14, 2 mL of peripheral blood was collected before and 0.5 and 4 hours after administration, respectively, plasma components were collected, and plasma KRZN7000 was separated and identified by LC-MS/M. The NKT response and the number of activated Tregs (Ki-67+%) in patients treated with RGI-2001-003 administration were monitored over time.

[1] = 100 ug/kg, plasma KRN7000 after RGI-2001-003 iv 100 μg/kg weekly, Day 0

## CCCCCCCCCCCCCCCCCCCCCCCCCC(=O)N[C@@H](CO[C@H]1OC(CO)[C@H](O)C(O)C1O)[C@H](O)[C@H](O)CCCCCCCCCCCCCC (stereo partly drawn) [KRN7000, (2S,3S,4R)-1-o-(α-D-galactopyranosyl)-2-(N-hexacosanoylamino)-1,3,4-octadecanetriol]
100 μg/kg as KRN7000, plasma KRN7000 after RGI-2001-003 iv 100 μg/kg weekly, Day 14, read-out: Cmin
  concentration at 14 day: 34.1 ng/mL
[1]
  half-life: 35.8 h
  Cmax: 881 ng/mL
100 ug/kg, plasma KRN7000 after RGI-2001-003 iv 100 μg/kg weekly, Day 0, read-out: *Est. AUC0-inf
  AUC(0-inf): 42500 ng·h/mL
100 ug/kg, plasma KRN7000 after RGI-2001-003 iv 100 μg/kg weekly, Day 0, read-out: AUC0-4
  AUC(0-t): 3000 ng·h/mL
100 ug/kg, plasma KRN7000 after RGI-2001-003 iv 100 μg/kg weekly, Day 14
  Cmax: 570 ng/mL
100 ug/kg, plasma KRN7000 after RGI-2001-003 iv 100 μg/kg weekly, Day 14, read-out: AUC0-4
  AUC(0-t): 1890 ng·h/mL

Source: US12599559B2, “CD1d-ligand-compound-containing liposome preparation having improved pharmacokinetics” (REGiMMUNE Corporation, priority 2020, dated 2026)
